# Columns and labels:
# Solubility at pH 7.4 = type: physicochemical
# Protocol: Physicochemical properties
# The Physicochemical profiling (LogD, Solubility, Caco-2 cell permeability) was performed as previously
# described.8 Cell viability was performed as described below.
# Table S2. Pharmacokinetic Properties
# Compound Structure logD, Solubility, Rat hepsa Human mics b
# [1] = Intrinsic clearance in human microsomes; type: in vitro ADME; details: read-out: Human mics: intrinsic clearance in human microsomes
# Protocol: All compounds (2–11, 25–29) were screened for their logD and solubility at pH 7.4 and for their intrinsic clearance in rat hepatocytes and human microsomes (Table S2). […] Replacing the basic amine side chain to a methyl substituent in the quinazolines (25–29) still retained good solubility (134 to over 1000 μM) but increased clearance in both rat hepatocytes and human microsomes. The logD was low for compounds with a basic amine side chain (2–11) and increased slightly when the amine was replaced with a methyl (25–29). As expected, additional substituents also affected the logD with the chloro-substituents increasing logD the most.
# a Intrinsic clearance in rat hepatocytes ((μL/min)/10^6 cells).b Intrinsic clearance in human microsomes (μL/min/mg). […]
# c-MYC Pu22 G4 DNA = assay: 1H NMR titration with c-MYC Pu22 G4 DNA; type: binding, human; details: DNA 90 μM; 298 K
# Text: To study the interactions of compounds 5 and 27 with G4 DNA in more detail, we performed a nuclear magnetic resonance (NMR) titration assay for both compounds with c-MYC Pu22 G4 DNA. In this assay, we monitored chemical shift alterations and the broadening of the well-defined imino protons from the G4 DNA located at 10–12 ppm in the NMR spectrum upon the addition of different compound concentrations. […] Although it is challenging to conclude the details of the binding interactions, the observed impact on the protons in the 3′ quartet for both compounds, especially compound 27, strongly implies the presence of an end-stacking type of interaction.
# The G4 DNA stock solutions were prepared by folding 100 μM c-MYC Pu22 in 10 mM potassium phosphate buffer (pH = 7.4) and 35 mM KCl by heating at 95 °C for 10 min and cooling to ambient temperature overnight. 10% D2O was added to the DNA stock solutions, yielding a final DNA concentration of 90 μM. NMR samples were prepared by sequential addition of 5 or 27 from 2 or 10 mM DMSO-d6 stock solutions to 200 μL of the DNA solution which was then transferred to 3 mm NMR tubes. […] All spectra were recorded at 298 K on a Bruker 850 MHz Avance III HD spectrometer equipped with a 5 mm TCI cryoprobe. Excitation sculpting was used in the 1D 1H experiments, and 256 scans were recorded. Processing of spectra was performed in MestreNova 10.0.2.
# [2] = test system: c-MYC Pu22 G4 DNA in the presence of competitor dsDNA (ds26); assay: FRET melting competition assay with dsDNA (ds26); type: binding, human; details: 5 at 2 μM, 27 at 5 μM; 0–100 equiv ds26
# Protocol: We next challenged the compounds’ G4 selectivity with a FRET melting competition assay using 5 (2 μM) and 27 (5 μM) with c-MYC Pu22 G4 DNA and increasing amounts of dsDNA (Figure 6D and Table S1). […] In addition, we investigated if we could detect any binding of the compounds to dsDNA using MST with a fluorescently labeled dsDNA (Table S1).
# The FRET occurs between two dyes (5′-FAM as donor and 3′-TAMRA as acceptor) linked at both extremities of a DNA oligonucleotide. When the oligonucleotides are folded into G4 structures, the donor and acceptor are in proximity, which results in an energy transfer from the donor to the acceptor. This process can be detected by a reduction in the fluorescence emission of the donor. Fluorescence emission of the donor is recovered when the temperature increment triggers the thermal denaturation of the G4 structure. The experiments were performed in a Bio-Rad CFX96 real-time PCR device at temperatures from 10 to 95 °C at 1.5 °C/m heating rate using a 492 nm excitation wavelength and a 516 nm detection wavelength in 96-well plates. Each condition was tested in duplicate, and analysis of the data was carried out by using Excel and Origin 8 software. […] The stabilization (ΔTm) is calculated from comparison of Tm of the fluorescently labeled oligonucleotide in the presence or absence of the ligand.
solubility (Solubility at pH 7.4),microsomal CLint [1],binding by NMR titration (imino protons) (c-MYC Pu22 G4 DNA),SMILES,change in compound-induced thermal stability of c-MYC Pu22 G4 DNA with increasing dsDNA [2]
> 1000 µM,< 3 µL/min/mg,–,"Cc1cc(NCCCN(C)C)nc(Nc2ncc3ccccc3n2)n1 [Compound 2, N4-(3-(Dimethylamino)propyl)-6-methyl-N2-(quinazolin-2-yl)pyrimidine-2,4-diamine]",–
962 µM,< 3 µL/min/mg,bind,"Cc1cc(C)c2nc(Nc3nc(C)cc(NCCCN(C)C)n3)nc(C)c2c1 [Compound 5, N4-(3-(Dimethylamino)propyl)-6-methyl-N2-(4,6,8-trimethylquinazolin-2-yl)pyrimidine-2,4-diamine]",No significant change
264 µM,140 µL/min/mg,bind,"Cc1cc(C)c2nc(Nc3nc(C)cc(C)n3)nc(C)c2c1 [Compound 27, N-(4,6-Dimethylpyrimidin-2-yl)-4,6,8-trimethylquinazolin-2-amine]",No significant change
